Measured values as given in article PMC5772648, “Targeted NUDT5 inhibitors block hormone signaling in breast cancer cells” (Nature Communications, 2018).

Tests used:
dCTPase = target: T1, dCTPase (Homo sapiens, UniProt Q9H773); experiment: phosphohydrolase selectivity, malachite green assay; assay type: biochemical
T1 construct: His-tag (N, cleaved yes); made in house; host or cells: E. coli BL21 (DE3) R3 pRARE2
T1 sequence (Q9H773 1-170): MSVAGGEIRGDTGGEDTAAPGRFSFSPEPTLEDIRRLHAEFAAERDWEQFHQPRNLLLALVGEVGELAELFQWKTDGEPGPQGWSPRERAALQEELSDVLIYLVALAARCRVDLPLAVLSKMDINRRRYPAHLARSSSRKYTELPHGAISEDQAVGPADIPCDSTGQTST
Protocol: (§1) The selectivity assay for TH5427 against similar pyrophosphohydrolases was performed with MTH1, NUDT9, NUDT2, NUDT12, NUDT14, NUDT15, NUDT18, ITPase, dCTPase and dUTPase[9]. All analyses were performed by malachite green assay following 30 min incubation at room temperature in reaction buffer (100 mM Tris Acetate, pH 7.5, 40 mM NaCl, 10 mM MgAc, 1 mM DTT) with 100 µM TH5427 and preferred substrates for each enzyme (4.75 nM MTH1 with 100 µM dGTP, 8 nM NUDT15 with 100 µM dGTP, 8 nM NUDT2 with 16 µM AP4A, 2 nM NUDT5 with 50 µM ADPR, 20 nM NUDT9 with 50 µM ADPR, 20 nM NUDT12 with 50 µM NADH, 2 nM NUDT14 with 50 µM ADPR, 200 nM NUDT18 with 50 µM 8-oxo-dGTP, 0.2 nM ITPase with […], 35 nM dCTPase with 35 µM dCTP, and 1 nM dUTPase with 12.5 µM dUTP). MTH1, NUDT15, NUDT18, ITPase, dCTPase and dUTPase reactions were coupled with 0.2 U/mL pyrophosphatase, while NUDT2, NUDT5, NUDT9, NUDT12, and NUDT14 reactions were coupled by bovine intestinal phosphatase (10 U/mL).

NUDT12 = target: T2, NUDT12 (Homo sapiens, UniProt Q9BQG2); experiment: as above; assay type: biochemical
T2 construct: His-tag (N); made in house; host or cells: E. coli BL21 (DE3) R3 pRARE2
Protocol: as §1

NUDT14 = target: T3, NUDT14 (Homo sapiens, UniProt O95848); experiment: as above; assay type: biochemical
T3 construct: His-tag (N); made in house; host or cells: E. coli BL21 (DE3) R3 pRARE2
T3 sequence (O95848 1-222): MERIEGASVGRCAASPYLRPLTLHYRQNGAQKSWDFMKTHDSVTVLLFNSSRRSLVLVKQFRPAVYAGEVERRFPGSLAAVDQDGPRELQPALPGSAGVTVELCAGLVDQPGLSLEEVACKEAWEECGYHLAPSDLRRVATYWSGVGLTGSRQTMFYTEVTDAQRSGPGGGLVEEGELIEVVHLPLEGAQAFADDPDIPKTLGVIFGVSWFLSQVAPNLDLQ
Protocol: as §1

NUDT9 = target: T4, NUDT9 (Homo sapiens, UniProt Q9BW91); experiment: as above; assay type: biochemical; conditions: 100 µM
T4 construct: His-tag (N); made in house; host or cells: E. coli BL21 (DE3) R3 pRARE2
T4 sequence (Q9BW91 47-350): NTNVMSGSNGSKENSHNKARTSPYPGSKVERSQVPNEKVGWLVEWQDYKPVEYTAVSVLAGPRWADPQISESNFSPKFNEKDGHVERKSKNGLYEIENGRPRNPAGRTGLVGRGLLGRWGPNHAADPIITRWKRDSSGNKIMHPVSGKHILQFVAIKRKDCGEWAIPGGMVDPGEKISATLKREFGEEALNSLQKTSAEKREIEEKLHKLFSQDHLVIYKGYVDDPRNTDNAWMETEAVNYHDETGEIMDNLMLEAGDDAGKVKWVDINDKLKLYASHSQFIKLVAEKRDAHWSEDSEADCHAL
Protocol: as §1

U-2 OS cells = experiment: modified alkaline comet assay (OGG1-specific lesions); assay type: cell-based; conditions: 10 µM, 24 or 72 h
Protocol: The modified comet assay was used to determine relative amounts of OGG1-specific substrates (e.g., 8-oxo-dG) within cellular DNA[9]. U-2 OS cells were transfected with siRNA for 72 h and/or treated with DMSO/500 nM TH1579 for 24 h prior to harvesting by trypsinization. For experiments with TH5427, cells were treated for 24 or 72 h with 10 µM compound.
In brief, 120 µL of 1% agarose in PBS was added to one end of a fully-frosted microscope slide (ThermoFisher Scientific) and protected with a 24 × 40 mm coverslip to form the first layer. Once solidified at 4 °C, the second layer was made by mixing 400 µL of 1.2% low-melting agarose in PBS with 100 µL of a 1 × 10^6 cells/mL suspension in PBS kept at 37 °C. The coverslip was removed and 80 µL was added on top of the first layer, spread with a coverslip, and left to solidify at 4 °C for 5–10 minutes. Two slides were made for each condition. […]
The slides were visualized using a 10x objective and a Zeiss LSM 780 confocal or Zeiss Axiovert 35 microscope. Comets were analyzed with OpenComet (www.cometbio.org/) or Comet Assay IV (http://www.perceptive.co.uk/products/comet-assay-iv/) software and the tail moments (tail length x percent DNA in the tail) were automatically calculated. […] At least 100 cells were analyzed for each condition per replicate.

T2 sequence (Q9BQG2 whole entry): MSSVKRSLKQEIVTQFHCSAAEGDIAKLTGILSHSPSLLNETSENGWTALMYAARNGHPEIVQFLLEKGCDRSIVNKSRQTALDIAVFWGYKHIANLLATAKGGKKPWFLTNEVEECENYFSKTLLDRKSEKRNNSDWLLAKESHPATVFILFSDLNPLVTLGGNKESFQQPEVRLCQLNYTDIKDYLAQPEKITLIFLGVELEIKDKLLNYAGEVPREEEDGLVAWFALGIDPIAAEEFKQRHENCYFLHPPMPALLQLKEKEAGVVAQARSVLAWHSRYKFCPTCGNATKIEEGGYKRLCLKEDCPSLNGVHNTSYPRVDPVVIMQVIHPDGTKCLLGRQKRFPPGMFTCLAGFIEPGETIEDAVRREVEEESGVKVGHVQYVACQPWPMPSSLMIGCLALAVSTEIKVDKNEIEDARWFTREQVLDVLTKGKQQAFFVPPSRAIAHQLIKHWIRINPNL

Cn1c(=O)c2c(nc(N3CCNCC3)n2Cc2nnc(-c3ccc(Cl)c(Cl)c3)o2)n(C)c1=O [TH5427]
inhibition at 100 µM (dCTPase): 39%
inhibition at 100 µM (NUDT12): 66%
inhibition at 100 µM (NUDT14): 38%
effect on NUDT9-mediated hydrolysis of ADPR (NUDT9): no effect
OGG1-specific DNA lesions (U-2 OS cells): nor increased OGG1-specific DNA lesions
